The test system of this assay is complete mole iPS cells. Nature of the assay: Trophoblast differentiation of complete mole iPS cells under AP conditions with BMP receptor inhibitor LDN193189. It is filed as cell-based, human. The protocol: FIG. 9—Preventing trophoblast differentiation in complete mole iPS cells by inhibition of the BMP signaling pathway. Cells are exposed to vehicle (DMSO) or BMP receptor inhibitor LDN193189 (100 nM) under AP conditions. (A) Changes in colony morphology by LDN193189 treatment. Pictures were obtained with 4× magnification. (B) Heat map showing the expression of trophoblast markers during differentiation of healthy and complete mole iPS cells (n=2 biological replicas) (C-D) Violin plot representation of pluripotency and trophoblast markers (n=2, ****p<0.001, Wilcoxon rank total test) (E) RT-qPCR for trophoblast and stem cell markers. Sidak multiple comparison tests were applied following 2-way ANOVA, *p<0.05, **p<0.01, ***p<0.005, ****p<0.001. Bars; showing±Standard Deviation. (F) Representative immunoblots for CDX2, HLA-G, KRT7 and OCT3/4.
In accordance the purpose of the present invention, the inventors applied it to the nutrition fluid of cells under LDN193189 AP conditions to test whether BMP receptor inhibitors can attenuate trophoblast differentiation or not. […] (FIG. 10A)
Trophoblast cells were formed from the obtained IPSCs under BAP or AP conditions. IPS cells were routinely kept on MEFs with hES medium (10 ng/mL FGF2). For trophoblast differentiation, 2.4×10^4 cells per square centimeter were seeded on matrigel-coated plates with conditioned hES medium through a monolayer of mitomycin-C treated MEF nutrient cells (MEF-CM) containing FGF2 (10 ng/mL). Next day, the medium was changed as MEF-CM containing 4 ng/mL FGF2. Next day, the medium was changed as BMP4 (10 ng/mL) containing unconditioned (BAP) hESC basal medium with MEF nutrient cells (RD Systems), ALK4/5/7 inhibitor, A83-01 (1 μM) (Tocris) and FGF2-signal inhibitor PD173074 […] (Sigma) (22, 27, 28). Control cultures were grown in the presence of FGF2 and in the absence of BAP. The medium was refreshed daily.
Total RNA was extracted using the Direct-zol RNA Isolation Kit (Zymogen) and cDNA was synthesized using the Sensifast cDNA synthesis kit (Bioline) as described by the manufacturer. Sequences of primers used in gene expression were synthesized by Macrogen as listed in table 3. qRT-PCR was performed on Exicycler™ 96 (Bioneer) using SensiFAST™ SYBRQR No-ROX Kit (Bioline). qRT-PCR results were analysed by the Ct method for relative amounts by taking GAPDH or HPRT as internal controls.
Cells were harvested in RIPA lysis buffer (150 mM NaCl, 1% NP40, 0.5% sodium deoxycholate, 0.1% SDS, 50 mM Tris pH 7.4) supplied with protease and phosphatase inhibitors (Roche, Switzerland). TCA-acetone precipitation was performed for the supernatants. Protein samples were applied to the SDS gel. Semi-dry transfer was performed by using Blotting papers (Sigma-Aldrich, USA) and PVDF membrane (Millipore, Ireland). After blocking with 5% non-fat dry milk, membranes were incubated overnight with primary antibodies (1:1000) at +4° C. Next day, the membrane was incubated with secondary antibodies connected with 1:2000 HRP according to the host origin of the primary antibody. Between all steps, membranes were washed 3 times with TBS-T. Immunoblot membranes were visualized with the Syngene documentation system by using ECL HRP Substrate (Advansta, USA).
Total RNA was extracted by using the Direct-zol RNA Isolation Kit (Zymogen) according to the protocol of the manufacturer (n=2 in all cases). Library preparation procedure by using Truseq strand mRNA LT Sample Preparation Kit (Illumina) and RNA sequencing procedure by using Hiseq2500 (Illumina) were performed by Macrogen Inc. (Korea). RNA sequence data were processed and interpreted with the Genialis visual computing platform (www.genialis.com). Briefly, RNA sequence readings were subjected to correction (BBDuk), mapping (STAR) and expression quantitation (featureCounts) procedures, respectively. The readings were mapped to Homo sapiens GRCh38 (Ensembl, version 92, ERCC). […]

Where [1] appears, read: complete mole cells, BMP pathway inhibition with LDN193189 100 nM, AP conditions, FIG. 9F.
Where [2] appears, read: complete mole cells, LDN193189 100 nM, AP conditions, FIG. 9C-9D.

Entries after “also recorded” stand apart in the source; their conditions may differ.

Take `c1ccc2c(-c3cnn4cc(-c5ccc(N6CCNCC6)cc5)cnc34)ccnc2c1` [LDN193189]: for the setting “LDN193189 100 nM, AP conditions, heat map of trophoblast markers FIG. 9B”, the “trophoblast differentiation of complete mole cells” value is reported as “inhibits trophoblast differentiation of complete mole cells; also recorded: suppression of excessive trophoblast differentiation”. Further, the “hierarchical clustering at whole transcriptome level” value (cells treated with LDN193189, FIG. 10D) was “clustered with non-differentiated iPS cells”. In addition, under “complete mole cells, BMP pathway inhibition with LDN193189 100 nM, AP conditions, FIG. 9E”, the “trophoblast gene expression by qRT-PCR” value was “decrease in trophoblast gene expression”. For the same molecule, under setting [1], the “CDX2, KRT7, HLA-G expression (immunoblot)” value is “stopped CDX2, KRT7, HLA-G increase in expression” and the “OCT3/4 expression (immunoblot)” value is “prevented decrease in expression (downregulation) of OCT3/4”. In addition, the “colony morphology (light microscopy)” value (complete mole cells, LDN193189 100 nM, AP conditions (A83-01+PD173074, no BMP4), vs DMSO vehicle, FIG. 9A) is given as “morphological phenotype similar to healthy cells”. Besides, under setting [2], the “expression of pluripotency markers (RNA sequencing, violin plot)” value is given as “remained highly expressed” and the “global expression of trophoblast markers (RNA sequencing, violin plot)” value was “decreased”.
